The Kd is the constant that tells how readily two partners part at equilibrium. As usually defined, the IC50 is the concentration at which inhibition is half-maximal.

Each structure is given as a SMILES string. Like-named read-outs stand apart in the source and are kept apart here.

In assay [1] the target is T1, E. coli FimH (Escherichia coli, UniProt Q1R2J4). Put plainly: SPR kinetic analysis of FimH against immobilized 6-aminohexyl α-D-mannopyranoside (4). Type of assay: binding. More on the design: The FimH residues 1-158 were isolated from the E. coli strain UTI89; made in house. The settings on record: for Kd: KD = koff/kon. As for the experimental part:
First, the equilibrium dissociation constant (KD) of FimH against immobilized 6-aminohexyl α-D-mannopyranoside (4) was determined. The ligand 6-aminohexyl α-D-mannopyranoside (10 mM in H2O) was immobilized via standard amine carbodiimide coupling chemistry (and blocking with ethanolamine as per the manufacturer’s procedure) to obtain 364 response units (RU) (see sensorgram in SI). The reference channel was treated similarly without ligand. A concentration series of the analyte FimH (1024 to 8 nM in running buffer, 2-fold dilutions) was then injected over the surface (700 s association time; 1200 s dissociation time; 30 μL/min flow rate; 25 °C temperature; running buffer: PBS pH 7.45, 3 mM EDTA supplemented with 0.005% Tween-20; regeneration: 30 s of 10 mM Glycine pH 1.5) and the response was double-referenced by subtracting the reference channel and the response with no FimH (running buffer only). Since equilibrium could not be reached during injection, KD was obtained from the extracted kinetic rate constants (KD = koff / kon) from a non-linear globally fitted 1:1 Langmuir binding isotherm containing a mass transfer constant (tc) and locally fitted refractive index constant (RI) (Biacore T200 evaluation software v1.0, GE Healthcare Life Sciences) of the obtained sensorgrams.

The target in assay [2] is T1, E. coli FimH. Put plainly: SPR solution affinity (competition) of ligands for FimH on immobilized 6-aminohexyl α-D-mannopyranoside. Format: binding. More on the design: The FimH residues 1-158 were isolated from the E. coli strain UTI89; made in house. The following applies: for Relative Potency: relative to MeαMan (1) = 1; for ΔG°: from SPR Kd. An excerpt:
To this end, we first immobilized 6-aminohexyl α-D-mannopyranoside (4) on the CM5 gold chip using the conventional carbodiimide method to which we allowed FimH to bind with and without our competitive inhibitors (see sensorgram of 4 in the SI). The equilibrium dissociation constant (Kd) of the interaction was then normalized, the data sets are illustrated in Figure 5 and values given in Table 1 (see experimental details). This modification from the previous protocol using 8-aminooctyl α-D-mannoside was found much more practical and reliable given its very high affinity to FimH which made the gold chip regeneration from sample to sample too complicated (very slow koff).
SPR Solution Affinity of Ligands for the E. coli FimH Adhesin
Second, the equilibrium dissociation constants (KD) of FimH against the compounds of interest were determined by measuring the amount of free FimH in a series of concentrations of the compounds of interest at a constant concentration of FimH (close to the Kd of FimH: 6-aminohexyl α-D-mannopyranoside) after equilibrium in solution. A concentration series of the ligand of interest (65536 to 0.5 nM in running buffer, 2-fold dilutions) was equilibrated overnight with analyte FimH (40 nM) and then injected over the previous ligand 6-aminohexyl α-D-mannopyranoside-immobilized surface (300 s association time; 300 s dissociation time; 30 μL/min flow rate; 25 °C temperature; running buffer: 5% DMSO, PBS pH 7.45, 3 mM EDTA supplemented with 0.05% Tween-20; regeneration: 30 s of 10 mM Glycine pH 1.5) and the response was single-referenced by subtracting the reference channel and solvent corrected with a DMSO calibration curve. Since equilibrium could not be reached during injection, the responses (free [FimH], Y-axis) at the end of the injections were normalized with the response from FimH only ([compound of interest] = 0) and then plotted over the compounds of interest concentrations (X-axis).

Assay [3] addresses T1, E. coli FimH. The experiment in a line: Previously reported SPR Kd against FimH. More on the design: The FimH residues 1-158 were isolated from the E. coli strain UTI89; made in house. Format: binding. The settings on record: 5 versus 7; from Kd values of ref 18.
The target in assay [4] is T1, E. coli FimH. More on the design: The FimH residues 1-158 were isolated from the E. coli strain UTI89; made in house. The settings on record: read-out: Kd (SPR), cited from earlier work.
Assay [5] deals with T1, E. coli FimH. On the set-up: The FimH residues 1-158 were isolated from the E. coli strain UTI89; made in house. The settings on record: read-out: IC50 (SPR); cited from earlier work.
Assay [6] deals with T1, E. coli FimH. The settings on record: from IC50 values of ref 20.

`NCCCCCCO[C@H]1O[C@H](CO)[C@@H](O)[C@H](O)[C@@H]1O` [Compound 4, 6-aminohexyl α-D-mannopyranoside]: the Kd is 38.6 nM at E. coli FimH [1] (KD, fitted constant) and 38.58 ± 0.11 nM on E. coli FimH [1] (Kd, immobilized ligand 4, FimH as analyte, 25 °C, PBS pH 7.45). The “dissociation rate constant (koff)” value at E. coli FimH [1] (fitted constant (dissociation rate), 1:1 Langmuir with mass transfer) is 2,06E-04 1/s. In addition, the kon at E. coli FimH [1] (read-out: ka) turned out to be 5340 M⁻¹ s⁻¹. For the same molecule, the “Relative Potency” value at E. coli FimH [1] (relative to MeαMan (1) = 1, immobilized ligand 4) is on record as 12.

Take `OCC1OC(OCC=Cc2ccc(-c3ccccc3)cc2)C(O)C(O)C1O` (stereo not shown) [Compound 5]: at E. coli FimH [2], the equilibrium dissociation constant (Kd) was 19.9 ± 1.22 nM and the “Relative Potency” value worked out at 24. Moreover, the “fold better Kd than 7” value on E. coli FimH [3] was found to be 135 fold. Besides, on E. coli FimH [4], the Kd was 3 nM.

On to `OCC1OC(CC=Cc2ccc(-c3ccccc3)cc2)C(O)C(O)C1O` (stereo not shown) [Compound 6], for which, at E. coli FimH [2], the affinity, expressed as Kd, was 11.4 ± 0.63 nM and the “Relative Potency” value worked out at 42.

`OC[C@H]1O[C@H](OCC#Cc2ccc(-c3ccccc3)cc2)[C@@H](O)[C@@H](O)[C@@H]1O` [Compound 7]: the Kd on E. coli FimH [4] was 405 nM.

For `OCC1OC(SCC=Cc2ccc(-c3ccccc3)cc2)C(O)C(O)C1O` [Compound 12, (2E)-3-(1,1’-biphenyl-2-propen-1-yl) 1-thio-α-D-mannopyranoside], on E. coli FimH [2], the Kd turned out to be 94.4 ± 6.2 nM and the “Relative Potency” value was 5. Besides, the “difference in respective Kds between 5 and 12” value on E. coli FimH [2] (O-linked 5 versus S-linked 12) is on record as “about 5 fold”.

Turning to `CCCCCCCO[C@H]1O[C@H](CO)[C@@H](O)[C@H](O)[C@@H]1O` [HeptylαMan (3), Heptyl α-D-mannopyranoside], on E. coli FimH [2], the Kd is 2.37 ± 0.5 nM, the “ΔG°” value is -11.76 kcal/mol and the “Relative Potency” value worked out at 200. For the same molecule, the Kd on E. coli FimH [4] (reported value for the golden standard) is 5 nM. Further, the IC50 at E. coli FimH [5] is 160 nM.

Turning to `CO[C@H]1O[C@H](CO)[C@@H](O)[C@H](O)[C@@H]1O` [MeαMan (1), Methyl α-D-mannopyranoside], on E. coli FimH [2], the dissociation constant Kd was determined as 475 ± 5.7 nM, the “ΔG°” value was -8.62 kcal/mol and the “Relative Potency” value came to 1.

With `O=[N+]([O-])c1ccc(O[C@H]2O[C@H](CO)[C@@H](O)[C@H](O)[C@@H]2O)cc1` [PNPαMan (2), para-nitrophenyl α-D-mannopyranoside], on E. coli FimH [2], the Kd came out at 4.21 ± 0.72 nM, the “ΔG°” value was -11.42 kcal/mol and the “Relative Potency” value amounted to 113.

Consider `CCCCCCCS[C@H]1O[C@H](CO)[C@@H](O)[C@H](O)[C@@H]1O` [S-linked heptyl α-D-mannopyranoside], for which the “difference between O- and S-linked heptyl α-D-mannopyranosides” value on E. coli FimH [6] was 3.4 fold. On E. coli FimH [5], the IC50 was 547 nM.

These data come from paper PMC6804135, “Comparative Study of Aryl O-, C-, and S-Mannopyranosides as Potential Adhesion Inhibitors toward Uropathogenic E. coli FimH” (Molecules, 2019).
